Data: ChEMBL document CHEMBL1201862, “PubChem BioAssay data set” (2004)
Active and inactive are the calls of the source.

Legend:
[1] = tested on: HEK293; assay: inhibitors of LMP1-driven NF-kB reporter, dose response, cell-based, HEK293, luciferase, cherry-pick (AID 588343); format: functional; conditions: Homo sapiens
[2] = molecular target: Latent membrane protein 1 (Human herpesvirus 4 (strain B95-8), UniProt P03230); assay: TES1-eGFP NF-kB reporter inhibition versus Tet-On dsRED, dose response, selectivity assay for LMP1 NF-kB inhibitor project, imaging, HEK293T, dual-color eGFP/dsRED, cherry-picks (AID 588398); format: functional, cell-based
Latent membrane protein 1, sequence (P03230 whole entry): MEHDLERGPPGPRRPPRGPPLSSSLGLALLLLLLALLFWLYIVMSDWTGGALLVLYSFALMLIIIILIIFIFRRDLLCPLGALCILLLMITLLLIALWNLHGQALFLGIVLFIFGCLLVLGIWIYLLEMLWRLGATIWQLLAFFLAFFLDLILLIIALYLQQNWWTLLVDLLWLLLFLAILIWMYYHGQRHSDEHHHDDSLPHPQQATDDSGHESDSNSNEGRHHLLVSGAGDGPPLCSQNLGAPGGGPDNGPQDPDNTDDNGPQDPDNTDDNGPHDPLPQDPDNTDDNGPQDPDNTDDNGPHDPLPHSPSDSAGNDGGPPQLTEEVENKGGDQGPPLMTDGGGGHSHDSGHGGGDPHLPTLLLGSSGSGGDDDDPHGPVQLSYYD

[3] = molecular target: Transitional endoplasmic reticulum ATPase (Homo sapiens, UniProt P55072, C522A); assay: C522A mutant p97 ATPase inhibitors, dose response, counter-screen for p97 inhibitor project, biochemical, luminescence (AID 1544)
[4] = molecular target: Transitional endoplasmic reticulum ATPase (Homo sapiens, UniProt P55072); assay: p97 ATPase inhibitors, dose response, biochemical (AID 1534)
Transitional endoplasmic reticulum ATPase (Homo sapiens, UniProt P55072), sequence (P55072 whole entry): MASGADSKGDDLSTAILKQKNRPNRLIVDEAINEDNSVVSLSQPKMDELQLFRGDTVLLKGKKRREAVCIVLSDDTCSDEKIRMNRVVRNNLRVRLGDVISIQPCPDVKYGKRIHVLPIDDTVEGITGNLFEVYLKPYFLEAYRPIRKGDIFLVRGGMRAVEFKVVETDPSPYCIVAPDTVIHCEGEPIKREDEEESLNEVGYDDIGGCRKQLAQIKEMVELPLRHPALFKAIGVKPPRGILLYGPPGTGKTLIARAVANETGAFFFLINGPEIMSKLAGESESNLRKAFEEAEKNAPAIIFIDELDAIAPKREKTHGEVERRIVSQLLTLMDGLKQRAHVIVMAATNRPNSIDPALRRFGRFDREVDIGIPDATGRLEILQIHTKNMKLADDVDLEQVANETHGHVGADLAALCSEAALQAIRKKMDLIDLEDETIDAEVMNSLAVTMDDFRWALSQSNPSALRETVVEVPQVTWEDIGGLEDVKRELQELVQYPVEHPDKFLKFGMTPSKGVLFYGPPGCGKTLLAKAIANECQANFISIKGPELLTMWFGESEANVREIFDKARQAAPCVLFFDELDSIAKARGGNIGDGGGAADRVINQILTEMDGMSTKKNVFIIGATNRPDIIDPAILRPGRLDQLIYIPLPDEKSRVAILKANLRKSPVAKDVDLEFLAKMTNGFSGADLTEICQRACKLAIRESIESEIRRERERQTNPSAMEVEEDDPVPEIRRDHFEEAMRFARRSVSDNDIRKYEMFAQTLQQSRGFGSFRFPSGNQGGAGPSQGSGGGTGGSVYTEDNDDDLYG

[5] = molecular target: Induced myeloid leukemia cell differentiation protein Mcl-1 (Homo sapiens, UniProt Q07820); format: functional
Induced myeloid leukemia cell differentiation protein Mcl-1, sequence (Q07820 whole entry): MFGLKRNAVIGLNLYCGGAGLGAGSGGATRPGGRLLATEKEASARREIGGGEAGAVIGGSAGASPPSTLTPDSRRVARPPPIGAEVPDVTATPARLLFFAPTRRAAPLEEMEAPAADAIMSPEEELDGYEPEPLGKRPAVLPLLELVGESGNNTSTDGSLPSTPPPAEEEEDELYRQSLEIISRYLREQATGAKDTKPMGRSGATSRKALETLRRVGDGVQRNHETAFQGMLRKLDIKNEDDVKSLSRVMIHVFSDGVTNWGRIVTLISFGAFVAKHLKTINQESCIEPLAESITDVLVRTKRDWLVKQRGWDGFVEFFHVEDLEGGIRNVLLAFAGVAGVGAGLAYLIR

[6] = molecular target: Glucose-6-phosphate 1-dehydrogenase (Homo sapiens, UniProt P11413); assay: human G6PD enzyme inhibitors, dose response, selectivity assay for P. falciparum G6PD inhibitor project, biochemical, fluorescence (AID 504792); format: functional
Glucose-6-phosphate 1-dehydrogenase, sequence (P11413 whole entry): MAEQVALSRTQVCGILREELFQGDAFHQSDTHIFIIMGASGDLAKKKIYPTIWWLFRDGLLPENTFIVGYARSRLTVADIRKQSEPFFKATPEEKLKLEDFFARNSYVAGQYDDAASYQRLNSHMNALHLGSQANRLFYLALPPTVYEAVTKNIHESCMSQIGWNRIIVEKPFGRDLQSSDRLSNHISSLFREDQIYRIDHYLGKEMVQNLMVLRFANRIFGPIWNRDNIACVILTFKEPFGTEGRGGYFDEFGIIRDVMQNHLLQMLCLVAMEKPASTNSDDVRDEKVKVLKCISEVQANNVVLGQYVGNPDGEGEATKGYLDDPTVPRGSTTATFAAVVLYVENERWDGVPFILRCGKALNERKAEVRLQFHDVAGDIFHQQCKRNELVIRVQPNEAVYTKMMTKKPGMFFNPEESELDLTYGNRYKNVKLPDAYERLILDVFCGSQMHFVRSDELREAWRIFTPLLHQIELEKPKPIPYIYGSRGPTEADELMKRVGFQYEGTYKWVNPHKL

[7] = molecular target: T1, Cystic fibrosis transmembrane conductance regulator/Golgi-associated PDZ and coiled-coil motif-containing protein (Homo sapiens, UniProt P13569+Q9HD26); assay: CAL PDZ peptide-binding inhibitors, dose response, biochemical, fluorescence polarization, Cerulean-tagged CAL PDZ, cherry-picks (AID 504773)
T1 sequence (P13569 whole entry, other chains not shown): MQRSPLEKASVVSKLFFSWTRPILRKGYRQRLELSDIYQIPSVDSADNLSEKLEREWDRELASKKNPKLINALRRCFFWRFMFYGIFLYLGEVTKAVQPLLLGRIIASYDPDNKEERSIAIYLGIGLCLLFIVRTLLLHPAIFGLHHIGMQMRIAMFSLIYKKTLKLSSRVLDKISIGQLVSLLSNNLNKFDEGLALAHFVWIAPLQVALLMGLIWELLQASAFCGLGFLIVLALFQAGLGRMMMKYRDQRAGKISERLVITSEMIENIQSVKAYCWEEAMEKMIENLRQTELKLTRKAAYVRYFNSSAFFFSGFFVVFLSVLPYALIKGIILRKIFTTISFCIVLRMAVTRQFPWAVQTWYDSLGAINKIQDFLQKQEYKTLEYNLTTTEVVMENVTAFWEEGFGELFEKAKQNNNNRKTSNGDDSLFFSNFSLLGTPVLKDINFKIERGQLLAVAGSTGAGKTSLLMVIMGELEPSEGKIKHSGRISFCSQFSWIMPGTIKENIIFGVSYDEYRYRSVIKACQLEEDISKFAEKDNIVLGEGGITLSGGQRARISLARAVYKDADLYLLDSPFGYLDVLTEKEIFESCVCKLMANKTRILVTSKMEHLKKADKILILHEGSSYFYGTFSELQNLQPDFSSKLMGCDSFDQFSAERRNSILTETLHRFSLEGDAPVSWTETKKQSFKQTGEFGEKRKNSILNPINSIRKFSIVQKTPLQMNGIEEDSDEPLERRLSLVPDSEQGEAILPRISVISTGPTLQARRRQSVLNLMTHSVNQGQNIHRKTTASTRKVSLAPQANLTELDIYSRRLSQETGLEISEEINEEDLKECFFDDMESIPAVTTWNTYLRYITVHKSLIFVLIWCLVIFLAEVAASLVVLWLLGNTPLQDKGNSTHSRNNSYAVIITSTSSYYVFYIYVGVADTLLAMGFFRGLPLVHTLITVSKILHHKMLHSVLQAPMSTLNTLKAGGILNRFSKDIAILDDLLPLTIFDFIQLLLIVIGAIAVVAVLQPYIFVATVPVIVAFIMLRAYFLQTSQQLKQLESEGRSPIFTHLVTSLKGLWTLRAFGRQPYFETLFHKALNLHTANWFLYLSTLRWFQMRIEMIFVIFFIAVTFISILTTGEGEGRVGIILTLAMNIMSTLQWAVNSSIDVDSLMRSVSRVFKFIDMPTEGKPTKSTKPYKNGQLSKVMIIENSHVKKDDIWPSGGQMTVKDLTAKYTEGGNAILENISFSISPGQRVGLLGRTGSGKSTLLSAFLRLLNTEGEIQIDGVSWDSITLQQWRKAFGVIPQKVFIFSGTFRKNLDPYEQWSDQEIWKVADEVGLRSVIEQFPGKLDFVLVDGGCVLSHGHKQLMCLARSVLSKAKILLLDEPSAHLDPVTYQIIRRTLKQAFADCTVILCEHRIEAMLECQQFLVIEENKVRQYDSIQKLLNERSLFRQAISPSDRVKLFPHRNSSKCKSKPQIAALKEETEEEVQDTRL

[8] = molecular target: Hexokinase HKDC1 (Homo sapiens, UniProt Q2TB90); assay: HKDC1 hexokinase inhibitors, dose response, biochemical, W721R variant (AID 504729); format: functional
[9] = tested on: Vero; assay: Vero cell cytotoxicity, cytotoxicity control for flavivirus capping enzyme inhibitors (AID 588742); format: functional; conditions: Chlorocebus sabaeus
[10] = molecular target: Genome polyprotein (dengue virus type 2, UniProt P29990); assay: Dengue-2 NS5 methyltransferase inhibitors, primary screen, biochemical, confirmation dose response (AID 588689); format: functional
Genome polyprotein, sequence (P29990 2492-3391 limits assumed): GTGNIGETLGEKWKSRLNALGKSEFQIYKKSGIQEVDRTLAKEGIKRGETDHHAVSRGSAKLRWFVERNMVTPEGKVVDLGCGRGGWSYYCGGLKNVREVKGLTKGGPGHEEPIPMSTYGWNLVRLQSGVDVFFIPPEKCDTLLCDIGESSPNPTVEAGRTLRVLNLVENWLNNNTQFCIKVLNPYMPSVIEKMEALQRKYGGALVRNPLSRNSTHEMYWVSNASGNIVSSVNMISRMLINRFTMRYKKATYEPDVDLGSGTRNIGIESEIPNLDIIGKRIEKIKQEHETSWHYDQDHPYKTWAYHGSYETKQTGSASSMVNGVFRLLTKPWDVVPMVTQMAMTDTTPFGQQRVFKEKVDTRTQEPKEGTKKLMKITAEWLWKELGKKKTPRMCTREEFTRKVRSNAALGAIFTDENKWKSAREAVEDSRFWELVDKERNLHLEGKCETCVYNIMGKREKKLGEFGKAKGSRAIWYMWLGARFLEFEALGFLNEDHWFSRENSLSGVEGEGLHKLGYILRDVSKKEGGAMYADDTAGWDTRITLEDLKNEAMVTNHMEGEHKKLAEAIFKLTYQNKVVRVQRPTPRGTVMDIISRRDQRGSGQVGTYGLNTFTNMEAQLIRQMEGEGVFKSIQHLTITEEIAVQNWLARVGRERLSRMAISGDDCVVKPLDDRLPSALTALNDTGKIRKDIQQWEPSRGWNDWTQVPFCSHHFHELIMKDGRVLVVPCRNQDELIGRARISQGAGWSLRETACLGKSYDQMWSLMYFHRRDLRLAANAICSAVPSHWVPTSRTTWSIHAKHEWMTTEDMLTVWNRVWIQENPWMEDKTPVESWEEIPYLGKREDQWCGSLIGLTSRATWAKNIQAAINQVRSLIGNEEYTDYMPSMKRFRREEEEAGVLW

[11] = molecular target: T2, Polyadenylate-binding protein 1 (Homo sapiens, UniProt P11940); assay: PABP1 MLLE–PAM2 interaction inhibitors, dose response, miRNA deadenylation inhibitor project, biochemical, fluorescence polarization, Cy5-PAM2 peptide, secondary (AID 602260); format: functional; conditions: read-out: IC50_Mean
T2 sequence (P11940 whole entry): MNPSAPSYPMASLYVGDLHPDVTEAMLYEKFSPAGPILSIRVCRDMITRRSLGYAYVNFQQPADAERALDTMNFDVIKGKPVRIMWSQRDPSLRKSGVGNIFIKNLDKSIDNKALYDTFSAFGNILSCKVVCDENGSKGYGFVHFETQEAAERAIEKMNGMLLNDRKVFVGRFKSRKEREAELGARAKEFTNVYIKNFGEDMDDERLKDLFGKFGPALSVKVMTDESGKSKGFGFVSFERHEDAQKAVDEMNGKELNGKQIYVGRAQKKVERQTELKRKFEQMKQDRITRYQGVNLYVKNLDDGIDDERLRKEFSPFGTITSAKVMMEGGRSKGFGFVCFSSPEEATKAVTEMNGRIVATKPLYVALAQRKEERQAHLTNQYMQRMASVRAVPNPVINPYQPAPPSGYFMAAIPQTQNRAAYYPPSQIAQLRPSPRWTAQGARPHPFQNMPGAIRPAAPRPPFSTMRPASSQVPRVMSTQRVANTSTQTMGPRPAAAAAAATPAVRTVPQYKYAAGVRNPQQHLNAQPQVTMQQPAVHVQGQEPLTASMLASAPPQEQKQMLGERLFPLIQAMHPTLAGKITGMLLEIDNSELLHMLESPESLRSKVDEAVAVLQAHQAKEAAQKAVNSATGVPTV

[12] = molecular target: T2, Polyadenylate-binding protein 1; assay: PABP1 MLLE–PAM2 binding inhibitor potency, dose response, biochemical, fluorescence polarization, FITC-PAM2 peptide (AID 602259); format: functional; conditions: read-out: IC50_Mean
[13] = CAL PDZ domain peptide-binding inhibitors, dose response, biochemical, fluorescence polarization, untagged CAL PDZ, dry powder (AID 602255); format: functional
[14] = molecular target: T1, Cystic fibrosis transmembrane conductance regulator/Golgi-associated PDZ and coiled-coil motif-containing protein; assay: CAL PDZ domain peptide-binding inhibitors, dose response, biochemical, fluorescence polarization, Cer-tagged CAL PDZ, dry powder (AID 602253); format: functional
[15] = BHK-21 cell cytotoxicity, cytotoxicity control for flavivirus guanylyltransferase probe project, secondary screen (AID 624078); format: functional
[16] = A549 cell cytotoxicity, dose response, cytotoxicity control, plate reader, cherry-pick, antagonist series (AID 743412); format: functional, cell-based
[17] = HepG2 cell cytotoxicity, dose response, cytotoxicity control, plate reader, cherry-pick, antagonist series (AID 743416); format: functional, cell-based
[18] = molecular target: T3, Tyrosyl-DNA phosphodiesterase 2 (Homo sapiens, UniProt O95551); assay: human TDP2 enzyme inhibitors, dose response, biochemical, epi absorbance, IC50 (AID 743297)
T3 sequence (O95551 whole entry): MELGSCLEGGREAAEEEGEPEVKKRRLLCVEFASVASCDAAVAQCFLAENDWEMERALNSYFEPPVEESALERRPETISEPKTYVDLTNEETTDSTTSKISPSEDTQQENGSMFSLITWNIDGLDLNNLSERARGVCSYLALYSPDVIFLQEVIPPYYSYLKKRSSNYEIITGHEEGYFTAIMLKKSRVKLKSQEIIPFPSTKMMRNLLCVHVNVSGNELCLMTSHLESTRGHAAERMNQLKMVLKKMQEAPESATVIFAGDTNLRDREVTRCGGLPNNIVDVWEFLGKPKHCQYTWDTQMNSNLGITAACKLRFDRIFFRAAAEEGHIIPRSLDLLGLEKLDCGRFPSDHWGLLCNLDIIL

[19] = MC4R antagonists, dose response, counter-screen for LGR2 antagonist project, cell-based, plate reader, cherry pick (AID 743444); format: functional;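 further: transfected HEK 293 cells stimulated with alpha-MSH peptide; potency of inhibitors of the alpha-MSH evoked signal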
[20] = HEK293 cell cytotoxicity, dose response, cytotoxicity control, plate reader, cherry-picked samples (AID 743446); format: functional, cell-based

COc1cccc(CNc2ncnc3ccc(-c4c(C)noc4C)cc23)c1
active: AC50 [1] 10.3 µM | AC50 [2] 14.1 µM

O=C(O)CSc1cc(NS(=O)(=O)c2cccc([N+](=O)[O-])c2)c2ccccc2c1O
> 50 µM (not active): IC50 [4]
active: IC50 [5] 13.6 µM | IC50 [6] 12.2 µM | AC50 [7] 21.7 µM | IC50 [8] 5.62 µM | CC50 [9] 26.5 µM | IC50 [10] 5.4 µM | AC50 [13] 52 µM | AC50 [14] 44.7 µM | CC50 [15] 7.45 µM | AC50 [16] 17.6 µM | AC50 [17] 12.1 µM | AC50 [19] 42.7 µM | AC50 [20] 21.2 µM
inactive: IC50 [11] > 66 µM | IC50 [12] 35.5 µM | IC50 [18] 12.9 µM
17.4 µM (not active): IC50 [3]
